# Data as given in publication PMC6897958, “Structural basis of ligand selectivity and disease mutations in cysteinyl leukotriene receptors” (Nature Communications, 2019).
# Entries after “also recorded” stand apart in the source; their conditions may differ.
# How the values were obtained:
# HEK293 cells = experiment: Quantification of LTD4 degradation in IP1 assay (UPLC/MS); assay type: in vitro ADME; conditions: 10 µM LTD4 over HEK293 monolayer, 30 min, 37 °C, with or without L-Cys
# Method: HEK293 cells were seeded in a 6-well plate at a density of 300,000 cells per well. Forty-eight hours after seeding, medium was removed, and cells were washed twice with PBS. […] After incubation, supernatant was filtered through a 0.22 µm PVDF filter and an internal standard was added before injection on UPLC/MS (Waters UPLC system coupled with a SQ detector 2 and a PDA eλ detector, using an Acquity UPLC BEH C18 column, 2.1 mm × 50 mm, 1.7 μm spherical size). UPLC chromatograms were recorded using the following gradient: water + 0.1% TFA and acetonitrile (0 → 0.2 min, 5% acetonitrile; 0.2 → 1.5 min, 5% → 95%; 1.5 → 1.8 min, 95%; 1.8 → 2.0 min, 95% → 5%; and 2.0 → 2.5 min, 5%). Quantification was done by determining the area under the curve (AUC) ratio of the tested compound over AUC of the internal standard. […] Quantification results are expressed as mean ± s.e.m. of three independent experiments.
# CysLT2R wild type = biological target: T1, CysLT2R wild type (Homo sapiens, UniProt Q9NS75); experiment: IP1 production assay (Cisbio IP-One), HEK293 cells transfected with wild-type CysLT2R; assay type: cell-based
# T1 construct: host or cells: HEK293 (ATCC CRL-1573)
# Method: (§1) For CysLT2R functional assays, the initial CysLT2R wild-type gene with an N-terminal 3 × HA tag cloned into pcDNA3.1+ (Invitrogen) at EcoRI(5′) and XhoI(3′) was purchased from cDNA.org. All further gene modifications (point mutations, truncations, or partner protein fusion) were introduced by overlapping PCR. Sequences of all primers used in this work are listed in Supplementary Table 4.
# The Cisbio IP-One kit was used according to the manufacturer’s instructions. […] At 48 h post transfection, the media was removed and the cells were washed with fresh Hank’s Balanced Salt Solution. […] After equilibration for 30 min at 37 °C, the cells were lysed with IP1-D2 and Ab-Crypt reagents in lysis buffer and then incubated for 1 h at RT. […] Data were plotted using the three parameters EC50/IC50 fit in GraphPad Prism 7 (San Diego, CA) and represent the mean ± s.d. of at least two independent experiments performed in quadruplicate.
# CysLT2R K194 ^ECL2R = biological target: T2, CysLT2R K194 ^ECL2R (Homo sapiens, UniProt Q9NS75, K194R); experiment: IP1 production assay, HEK293 transfected with CysLT2R mutant; assay type: cell-based
# T2 construct: expressed in transfected cells; host or cells: HEK293 (ATCC CRL-1573)
# Excerpt: as §1
# (§2) The Cisbio IP-One kit was used according to the manufacturer’s instructions. HEK293 cells (ATCC CRL-1573) were seeded onto poly-L-Lysine-coated 384-well plates at 20,000 cells per well and transfected with 40 ng of DNA coding for the wild-type CysLT2R or for the CysLT2R mutants using the X-treme-Gene HP (Roche) agent. At 48 h post transfection, the media was removed and the cells were washed with fresh Hank’s Balanced Salt Solution. […] After equilibration for 30 min at 37 °C, the cells were lysed with IP1-D2 and Ab-Crypt reagents in lysis buffer and then incubated for 1 h at RT. […] Data were plotted using the three parameters EC50/IC50 fit in GraphPad Prism 7 (San Diego, CA) and represent the mean ± s.d. of at least two independent experiments performed in quadruplicate.
# CysLT2R K37^1.31R = biological target: T3, CysLT2R K37^1.31R (Homo sapiens, UniProt Q9NS75, K37R); experiment: as above; assay type: cell-based
# T3 construct: expressed in transfected cells; host or cells: HEK293 (ATCC CRL-1573)
# Excerpt: as §1, §2
# CysLT2R L129^3.43Q = biological target: T4, CysLT2R L129^3.43Q (Homo sapiens, UniProt Q9NS75, L129Q); experiment: as above; assay type: cell-based; conditions: for remaining activity at 1 µM: HEK293, Log[Antagonist] -6 M, L129Q constitutive activity, source data Supp Figure 6D; for remaining activity at 0.01 µM: HEK293, Log[Antagonist] -8 M; for remaining activity at 0.001 µM: HEK293, Log[Antagonist] -9 M; for reversal of constitutive activity (IP1 production) of L129^3.43Q: antagonist 1 µM
# T4 construct: expressed in transfected cells; host or cells: HEK293 (ATCC CRL-1573)
# T4 sequence (Q9NS75 1-346 L129Q): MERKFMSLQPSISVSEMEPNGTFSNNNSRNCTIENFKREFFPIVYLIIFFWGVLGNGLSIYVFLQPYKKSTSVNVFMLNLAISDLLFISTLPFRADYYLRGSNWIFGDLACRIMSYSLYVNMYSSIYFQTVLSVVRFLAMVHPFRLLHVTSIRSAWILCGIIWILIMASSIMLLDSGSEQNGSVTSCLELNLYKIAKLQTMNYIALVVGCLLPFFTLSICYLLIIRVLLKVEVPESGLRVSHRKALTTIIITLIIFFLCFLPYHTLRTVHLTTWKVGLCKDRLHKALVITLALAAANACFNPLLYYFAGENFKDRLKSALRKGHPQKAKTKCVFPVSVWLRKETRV
# Excerpt: as §1, §2
# CysLT2R V135^3.49D = biological target: T5, CysLT2R V135^3.49D (Homo sapiens, UniProt Q9NS75, V135D); experiment: as above; assay type: cell-based
# T5 construct: expressed in transfected cells; host or cells: HEK293 (ATCC CRL-1573)
# Excerpt: as §1, §2
# CysLT2R H284^7.32Q = biological target: T6, CysLT2R H284^7.32Q (Homo sapiens, UniProt Q9NS75, H284Q); experiment: as above; assay type: cell-based
# T6 construct: expressed in transfected cells; host or cells: HEK293 (ATCC CRL-1573)
# Excerpt: as §1, §2
# CysLT2R F137^3.51Y = biological target: T7, CysLT2R F137^3.51Y (Homo sapiens, UniProt Q9NS75, F137Y); experiment: as above; assay type: cell-based
# T7 construct: expressed in transfected cells; host or cells: HEK293 (ATCC CRL-1573)
# Excerpt: as §1, §2
# CysLT2R Y127^3.41W = biological target: T8, CysLT2R Y127^3.41W (Homo sapiens, UniProt Q9NS75, Y127W); experiment: as above; assay type: cell-based
# T8 construct: expressed in transfected cells; host or cells: HEK293 (ATCC CRL-1573)
# Excerpt: as §1, §2
# CysLT2R N301^7.49D = biological target: T9, CysLT2R N301^7.49D (Homo sapiens, UniProt Q9NS75, N301D); experiment: as above; assay type: cell-based
# T9 construct: expressed in transfected cells; host or cells: HEK293 (ATCC CRL-1573)
# Excerpt: as §1, §2
# CysLT2R E310^8.48G = biological target: T10, CysLT2R E310^8.48G (Homo sapiens, UniProt Q9NS75, E310G); experiment: as above; assay type: cell-based
# T10 construct: expressed in transfected cells; host or cells: HEK293 (ATCC CRL-1573)
# Excerpt: as §1, §2
# CysLT2R S169^4.56A = biological target: T11, CysLT2R S169^4.56A (Homo sapiens, UniProt Q9NS75, S169A); experiment: as above; assay type: cell-based
# T11 construct: expressed in transfected cells; host or cells: HEK293 (ATCC CRL-1573)
# Excerpt: as §1, §2
# CysLT2R R267^6.55K = biological target: T12, CysLT2R R267^6.55K (Homo sapiens, UniProt Q9NS75, R267K); experiment: as above; assay type: cell-based
# T12 construct: expressed in transfected cells; host or cells: HEK293 (ATCC CRL-1573)
# Excerpt: as §1, §2
# CysLT2R M201^5.38V = biological target: T13, CysLT2R M201^5.38V (Homo sapiens, UniProt Q9NS75, M201V); experiment: as above; assay type: cell-based
# T13 construct: expressed in transfected cells; host or cells: HEK293 (ATCC CRL-1573)
# Excerpt: as §1, §2
# CysLT2R Y119^3.33F = biological target: T14, CysLT2R Y119^3.33F (Homo sapiens, UniProt Q9NS75, Y119F); experiment: as above; assay type: cell-based
# T14 construct: expressed in transfected cells; host or cells: HEK293 (ATCC CRL-1573)
# Excerpt: as §1, §2
# CysLT2R N202^5.39H = biological target: T15, CysLT2R N202^5.39H (Homo sapiens, UniProt Q9NS75, N202H); experiment: as above; assay type: cell-based
# T15 construct: expressed in transfected cells; host or cells: HEK293 (ATCC CRL-1573)
# Excerpt: as §1, §2
# CysLT2R E310^8.48A = biological target: T16, CysLT2R E310^8.48A (Homo sapiens, UniProt Q9NS75, E310A); experiment: as above; assay type: cell-based
# T16 construct: expressed in transfected cells; host or cells: HEK293 (ATCC CRL-1573)
# Excerpt: as §1, §2
# CysLT2R F260^6.48W = biological target: T17, CysLT2R F260^6.48W (Homo sapiens, UniProt Q9NS75, F260W); experiment: as above; assay type: cell-based
# T17 construct: expressed in transfected cells; host or cells: HEK293 (ATCC CRL-1573)
# Excerpt: as §1, §2
# CysLT2R W51^1.45V = biological target: T18, CysLT2R W51^1.45V (Homo sapiens, UniProt Q9NS75, W51V); experiment: as above; assay type: cell-based
# T18 construct: expressed in transfected cells; host or cells: HEK293 (ATCC CRL-1573)
# Excerpt: as §1, §2
# CysLT2R I126^3.40V = biological target: T19, CysLT2R I126^3.40V (Homo sapiens, UniProt Q9NS75, I126V); experiment: as above; assay type: cell-based
# T19 construct: expressed in transfected cells; host or cells: HEK293 (ATCC CRL-1573)
# Excerpt: as §1, §2
# CysLT2R K194 ^ECL2N = biological target: T20, CysLT2R K194 ^ECL2N (Homo sapiens, UniProt Q9NS75, K194N); experiment: as above; assay type: cell-based
# T20 construct: expressed in transfected cells; host or cells: HEK293 (ATCC CRL-1573)
# Excerpt: as §1, §2
# [1] = read-out: IP1 production (normalized), single replicate values
# [2] = L129Q, Supp Figure 6D, read-out: IP1 production (normalized), single replicate values
# T14 sequence (Q9NS75 whole entry Y119F): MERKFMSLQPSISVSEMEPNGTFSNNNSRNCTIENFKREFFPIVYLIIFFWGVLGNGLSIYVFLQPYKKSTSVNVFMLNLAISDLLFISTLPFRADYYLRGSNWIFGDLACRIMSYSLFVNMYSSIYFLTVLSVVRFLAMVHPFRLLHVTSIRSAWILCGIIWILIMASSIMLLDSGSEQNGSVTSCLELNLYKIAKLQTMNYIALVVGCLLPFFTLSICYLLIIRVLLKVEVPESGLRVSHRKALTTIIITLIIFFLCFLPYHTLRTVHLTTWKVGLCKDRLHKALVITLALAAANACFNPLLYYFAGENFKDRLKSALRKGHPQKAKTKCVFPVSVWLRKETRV
# T18 sequence (Q9NS75 whole entry W51V): as the sequence (Q9NS75 whole entry Y119F) above, with W51V, F119Y counted along it
# T20 sequence (Q9NS75 whole entry K194N): as the sequence (Q9NS75 whole entry Y119F) above, with F119Y, K194N counted along it
# T12 sequence (Q9NS75 whole entry R267K): as the sequence (Q9NS75 whole entry Y119F) above, with F119Y, R267K counted along it
# T3 sequence (Q9NS75 whole entry K37R): as the sequence (Q9NS75 whole entry Y119F) above, with K37R, F119Y counted along it
# T11 sequence (Q9NS75 whole entry S169A): as the sequence (Q9NS75 whole entry Y119F) above, with F119Y, S169A counted along it
# T1 sequence (Q9NS75 whole entry): as the sequence (Q9NS75 whole entry Y119F) above, with F119Y counted along it
# T9 sequence (Q9NS75 whole entry N301D): as the sequence (Q9NS75 whole entry Y119F) above, with F119Y, N301D counted along it
# T2 sequence (Q9NS75 whole entry K194R): as the sequence (Q9NS75 whole entry Y119F) above, with F119Y, K194R counted along it
# T16 sequence (Q9NS75 whole entry E310A): as the sequence (Q9NS75 whole entry Y119F) above, with F119Y, E310A counted along it
# T10 sequence (Q9NS75 whole entry E310G): as the sequence (Q9NS75 whole entry Y119F) above, with F119Y, E310G counted along it
# T6 sequence (Q9NS75 whole entry H284Q): as the sequence (Q9NS75 whole entry Y119F) above, with F119Y, H284Q counted along it
# T8 sequence (Q9NS75 whole entry Y127W): as the sequence (Q9NS75 whole entry Y119F) above, with F119Y, Y127W counted along it
# T13 sequence (Q9NS75 whole entry M201V): as the sequence (Q9NS75 whole entry Y119F) above, with F119Y, M201V counted along it
# T17 sequence (Q9NS75 whole entry F260W): as the sequence (Q9NS75 whole entry Y119F) above, with F119Y, F260W counted along it
# T7 sequence (Q9NS75 whole entry F137Y): as the sequence (Q9NS75 whole entry Y119F) above, with F119Y, F137Y counted along it
# T19 sequence (Q9NS75 whole entry I126V): as the sequence (Q9NS75 whole entry Y119F) above, with F119Y, I126V counted along it
# T5 sequence (Q9NS75 whole entry V135D): as the sequence (Q9NS75 whole entry Y119F) above, with F119Y, V135D counted along it
# T15 sequence (Q9NS75 whole entry N202H): as the sequence (Q9NS75 whole entry Y119F) above, with F119Y, N202H counted along it
IC50 (CysLT2R wild type) [nM],IC50 (CysLT2R K194 ^ECL2R) [nM],IC50 (CysLT2R K37^1.31R) [nM],remaining activity at 1 µM (CysLT2R L129^3.43Q; [1]) [%],remaining activity at 0.01 µM (CysLT2R L129^3.43Q; [2]) [%],remaining activity at 0.001 µM (CysLT2R L129^3.43Q; [2]) [%],reversal of constitutive activity (IP1 production) of L129^3.43Q (CysLT2R L129^3.43Q),IC50 (CysLT2R V135^3.49D) [nM],IC50 (CysLT2R H284^7.32Q) [nM],IC50 (CysLT2R F137^3.51Y) [nM],IC50 (CysLT2R Y127^3.41W) [nM],IC50 (CysLT2R N301^7.49D) [nM],IC50 (CysLT2R E310^8.48G) [nM],IC50 (CysLT2R S169^4.56A) [nM],IC50 (CysLT2R R267^6.55K) [nM],IC50 (CysLT2R M201^5.38V) [nM],IC50 (CysLT2R Y119^3.33F) [nM],IC50 (CysLT2R N202^5.39H) [nM],IC50 (CysLT2R E310^8.48A) [nM],IC50 (CysLT2R F260^6.48W) [nM],SMILES,further results
–,–,–,–,–,–,–,–,–,–,–,–,–,–,–,–,–,–,–,–,CCCCC/C=C\C\C=C/C=C/C=C/[C@@H](SC[C@H](N)C(=O)NCC(=O)O)[C@@H](O)CCCC(=O)O [LTD4],LTD4 conversion/degradation in functional assay (HEK293 cells): No LTD4 conversion was found; also recorded: No LTD4 degradation was observed
14 ± 6,60 ± 30,80 ± 30,76.2,78.3,74.4,not reversed,3 ± 3,230 ± 90,15 ± 5,500 ± 400,170 ± 70,2 ± 1,10 ± 4,22 ± 9,30 ± 10,100 ± 40,290 ± 100,8 ± 3,40 ± 20,O=C(O)CCCN1C[C@@H](C(=O)O)Oc2c(NC(=O)c3ccc(OCCCCc4cc(F)ccc4Cl)cc3)cccc21 [cpd 11a],IC50 (CysLT2R W51^1.45V): 47 ± 10 nM; IC50 (CysLT2R I126^3.40V): 20 ± 10 nM; IC50 (CysLT2R K194 ^ECL2N): 8 ± 4 nM
70 ± 20,40 ± 20,280 ± 100,80.7,83.3,87.9,not reversed,40 ± 30,270 ± 200,70 ± 20,44 ± 10,110 ± 50,7 ± 6,16 ± 10,100 ± 30,60 ± 20,260 ± 100,60 ± 30,18 ± 5,330 ± 100,O=C(O)CCCN1CC(C(=O)O)Oc2c(NC(=O)c3ccc(OCCCCOc4cccc(F)c4F)cc3F)cccc21 (stereo not drawn) [cpd 11c],"remaining activity at 0.1 µM (CysLT2R L129^3.43Q; HEK293, Log[Antagonist] -7 M, L129Q, Supp Figure 6D, read-out: IP1 production (normalized), single replicate values): 85.9%; remaining activity at 0.0001 µM (CysLT2R L129^3.43Q; HEK293, Log[Antagonist] -10 M, L129Q, Supp Figure 6D, read-out: IP1 production (normalized), single replicate values): 72.7%; remaining activity at 10 pM (CysLT2R L129^3.43Q; HEK293, Log[Antagonist] -11 M, L129Q, Supp Figure 6D, read-out: IP1 production (normalized), single replicate values): 64.1%; remaining activity at 1 pM (CysLT2R L129^3.43Q; HEK293, Log[Antagonist] -12 M, L129Q, Supp Figure 6D, read-out: IP1 production (normalized), single replicate values): 68%; IC50 (CysLT2R W51^1.45V): 160 ± 30 nM; IC50 (CysLT2R I126^3.40V): 14 ± 5 nM; IC50 (CysLT2R K194 ^ECL2N): 32 ± 10 nM"
